Laboratory results taken from patent US20260091050A1, “ADVANTAGEOUS ANTI-HCV COMBINATION THERAPY” (Atea Pharmaceuticals, Inc., priority 2021, published 2026).
Several values for one entry are separate records, joined by “and”; a condition that tells them apart may be missing. Equal values may be shown once.

What was measured:
[1] = Ambient stability (25 ± 2° C./60 ± 5% RH) of Compound 1-A over 9 months; assay type: physicochemical
Method: (§1) Three conditions were tested: accelerated stability (40±2° C./[…]) over a 6-month time period, ambient stability (25±2° C./[…]) over a 9-month period, and stability under refrigerator conditions (5±3° C.) over a 9-month time period. The results for accelerated stability, ambient stability, and refrigerator conditions are shown in Table 23, Table 24, and Table 25, respectively.

[2] = Stability under refrigerator conditions (5 ± 3° C.) of Compound 1-A over 9 months; assay type: physicochemical
Method: as §1

[3] = Plasma levels of Compound 1 and metabolites after single oral dose of Compound 1-A, rat; assay type: in vivo; settings: 500 mg/kg single oral dose
[4] = Plasma levels of Compound 1 and metabolites after single oral dose of Compound 1-A, monkey; assay type: in vivo; settings: for Compound 1 Tmax: Monkey, plasma
[5] = Heart and liver tissue levels of active triphosphate 4 hours after oral Compound 1-A, dog; assay type: in vivo; settings: 4 hours after single oral dose
Method: (§2) High levels of the active TP were measured in the liver of all species tested.

[6] = Heart and liver tissue levels of active triphosphate 4 hours after oral Compound 1-A, monkey; assay type: in vivo; settings: 4 hours after single oral dose
Method: as §2

[7] = Head-to-head comparison of Compound 1 and Compound 1-A in dogs: plasma levels; assay type: in vivo; settings: dog plasma
Method: A head-to-head comparison of dogs dosed with Compound 1 and Compound 1-A was conducted.

GT1 HCV = assay: Multiple dose study, 7 days QD, non-cirrhotic GT1 HCV-infected patients (Part C); assay type: in vivo, human
Method: (§3) Doses were administered as the Compound 1-A salt base. The free base Compound 1 equivalent is often given in parenthesis.
(§4) Part C was a randomized, double-blind, placebo-controlled MAD study divided into three cohorts. […] The dose escalation only proceeded following satisfactory review of the data.
(§5) HCV-infected patients were treatment-naïve with HCV RNA ≥5 log 10 IU/mL. HCV RNA was quantified using COBAS® AmpliPrep TaqMAN® v2.0 with LLQ of 15 IU/mL. Plasma drug levels were measured using LC-MS/MS. […] Mean ages of enrolled subjects were 44, 39, and 56 years in the non-cirrhotic GT1b 600 mg dose cohort, non-cirrhotic GT3 cohort, and the cirrhotic cohort, respectively.

GT3 HCV = assay: 600 mg QD for 7 days in non-cirrhotic GT3 HCV-infected patients (Part D); assay type: in vivo, human
Method: as §3, §4, §5

GT1, GT2, or GT3 HCV = assay: 600 mg QD for 7 days in Child-Pugh A cirrhotic patients with GT1, GT2 or GT3 HCV (Part E); assay type: in vivo, human; settings: for Mean Max Reduction / Mean Reduction After 24 hours / HCV RNA < LOQ (15 IU/mL): 600 mg of Compound 1-A; for HCV RNA < LOQ (15 IU/mL): subjects/total
Method: Doses were administered as the Compound 1-A salt base. The free base Compound 1 equivalent is often given in parenthesis. […]
as §5

[8] = Solubility in biorelevant test medias (water, SGF, FaSSIF, FeSSIF); settings: for Appearance: solubility test; for Descriptive term: solubility
[9] = 25 ± 2° C./60 ± 5% RH, 1st month
[10] = 25 ± 2° C./60 ± 5% RH, 3rd month
[11] = 25 ± 2° C./60 ± 5% RH, 6th month
[12] = 25 ± 2° C./60 ± 5% RH, 9th month
[13] = 600 mg of Compound 1-A, GT1, non-cirrhotic (n = 6)
[14] = 600 mg of Compound 1-A, GT3, non-cirrhotic (n = 6)

In the case of `CNc1nc(N)nc2c1ncn2[C@@H]1O[C@H](CO[P@@](=O)(N[C@@H](C)C(=O)OC(C)C)Oc2ccccc2)[C@@H](O)[C@@]1(C)F` [Compound 1-A, isopropyl ((S)-(((2R,3R,4R,5R)-5-(2-amino-6-(methylamino)-9H-purin-9-yl)-4-fluoro-3-hydroxy-4-methyltetrahydrofuran-2-yl)methoxy) (phenoxy)phosphoryl)-L-alaninate hemisulfate], the Appearance ([1]; 25 ± 2° C./60 ± 5% RH, 0 month) is reported as “White”, the Assay ([1]; 25 ± 2° C./60 ± 5% RH, 0 month) is reported as 98.8% and the IR ([1]; 25 ± 2° C./60 ± 5% RH, 0 month) is reported as “correspond”. For the same molecule, the “Related Substance 1 Any other single impurity” value ([1]; 25 ± 2° C./60 ± 5% RH, 0 month) was 0.01%, the “Related Substance 1 Total Impurities” value ([1]; 25 ± 2° C./60 ± 5% RH, 0 month) was 0.01% and the Water ([1]; 25 ± 2° C./60 ± 5% RH, 0 month) was 0.45%. For the same molecule, the Appearance [1, 9] was “White”, the Assay [1, 9] was 101.1% and the “Related Substance 1 Any other single impurity” value [1, 9] was 0.01%. For the same molecule, the “Related Substance 1 Total Impurities” value [1, 9] was 0.02%, the Water [1, 9] was 0.19% and the Appearance [1, 10] was “White”. The Assay [1, 10] was 99.6%, the IR [1, 10] was “correspond” and the “Related Substance 1 Any other single impurity” value [1, 10] was 0.03%. The “Related Substance 1 Impurity B” value [1, 10] was 0.03%, the “Related Substance 1 Impurity F” value [1, 10] was 0.02% and the “Related Substance 1 Total Impurities” value [1, 10] was 0.11%. The Water [1, 10] was 0.29%, the Appearance [1, 11] was “White solid” and the Assay [1, 11] was 99.7%. The IR [1, 11] was “correspond”, the “Related Substance 1 Any other single impurity” value [1, 11] was 0.02% and the “Related Substance 1 Impurity F” value [1, 11] was 0.01%. The “Related Substance 1 Total Impurities” value [1, 11] was 0.05%, the Water [1, 11] was 0.46% and the Appearance [1, 12] was “Off-white”. The Assay [1, 12] was 100.9%, the IR [1, 12] was “correspond” and the “Related Substance 1 Any other single impurity” value [1, 12] was 0.02%. For the same molecule, the “Related Substance 1 Total Impurities” value [1, 12] was 0.02%, the Water [1, 12] was 0.20% and the percentage of water ([1]; after 9 months) was 0.2000. The “total related substance 1 impurities” value ([1]; after 9 months) was 0.02%, the Appearance ([2]; 5 ± 3° C., 0 month) was “White” and the Assay ([2]; 5 ± 3° C., 0 month) was 98.8%. For the same molecule, the IR ([2]; 5 ± 3° C., 0 month) was “correspond”, the “Related Substance 1 Any other single impurity” value ([2]; 5 ± 3° C., 0 month) was 0.01% and the “Related Substance 1 Total Impurities” value ([2]; 5 ± 3° C., 0 month) was 0.01%. For the same molecule, the Water ([2]; 5 ± 3° C., 0 month) was 0.45%, the Appearance ([2]; 5 ± 3° C., 1st month) was “White” and the Assay ([2]; 5 ± 3° C., 1st month) was 101.1%. The “Related Substance 1 Any other single impurity” value ([2]; 5 ± 3° C., 1st month) was 0.01%, the “Related Substance 1 Total Impurities” value ([2]; 5 ± 3° C., 1st month) was 0.01% and the Water ([2]; 5 ± 3° C., 1st month) was 0.19%. The Appearance ([2]; 5 ± 3° C., 3rd month) was “White”, the Assay ([2]; 5 ± 3° C., 3rd month) was 100.2% and the IR ([2]; 5 ± 3° C., 3rd month) was “correspond”. For the same molecule, the “Related Substance 1 Any other single impurity” value ([2]; 5 ± 3° C., 3rd month) was 0.01%, the “Related Substance 1 Impurity B” value ([2]; 5 ± 3° C., 3rd month) was 0.01% and the “Related Substance 1 Total Impurities” value ([2]; 5 ± 3° C., 3rd month) was 0.03%. The Water ([2]; 5 ± 3° C., 3rd month) was 0.32%, the Appearance ([2]; 5 ± 3° C., 6th month) was “White” and the Assay ([2]; 5 ± 3° C., 6th month) was 98.6%. For the same molecule, the IR ([2]; 5 ± 3° C., 6th month) was “correspond”, the “Related Substance 1 Any other single impurity” value ([2]; 5 ± 3° C., 6th month) was 0.01% and the “Related Substance 1 Total Impurities” value ([2]; 5 ± 3° C., 6th month) was 0.03%. For the same molecule, the Water ([2]; 5 ± 3° C., 6th month) was 0.42%, the Appearance ([2]; 5 ± 3° C., 9th month) was “Off-white” and the Assay ([2]; 5 ± 3° C., 9th month) was 101.4%. The IR ([2]; 5 ± 3° C., 9th month) was “correspond”, the “Related Substance 1 Any other single impurity” value ([2]; 5 ± 3° C., 9th month) was 0.01% and the “Related Substance 1 Total Impurities” value ([2]; 5 ± 3° C., 9th month) was 0.01%. For the same molecule, the Water ([2]; 5 ± 3° C., 9th month) was 0.32%, the “total impurities of related substance 1” value ([2]; after 9 months) was 0.0100 and the water content ([2]; after 9 months) was 0.3200. For the same molecule, the “Chemical stability (conclusion)” value ([2]; refrigerator conditions) was “very chemically stable”, the “Compound 1 AUC0-last” value [3] was 60.9 ng·h/mL and the “Compound 1 Cmax” value [3] was 70.5 ng/mL. The “Compound 1 Tmax” value [3] was 15 min, the “Compound 1 Tmax” value ([4]; 30 mg/kg single oral dose) was 30 to 120 min and the “Compound 1 Tmax” value ([4]; 100 mg/kg single oral dose) was 60 to 120 min. For the same molecule, the “vomiting (animals affected)” value ([4]; monkeys, high dose group) was “⅕”, the “active TP (metabolite 1-6) level in heart” value [5] was “Relatively low levels” and the “active TP (metabolite 1-6) level in liver” value [5] was “High levels”. The “active TP (metabolite 1-6) level in heart” value [6] was “unquantifiable levels”, the “active TP (metabolite 1-6) level in liver” value [6] was “High levels” and the “AUC(0-4 hr) of metabolite 1-7 compared to dosing with Compound 1” value [7] was “twice as great”. For the same molecule, the “Mean Dose-normalized AUC(0-4 hr) for Compound 1” value ([7]; normalized to a dose of 25 mg/kg, 25 mg/kg) was 1.0 µM·h, the “subjects achieving HCV RNA <LOQ” value (GT1 HCV; 600 mg QD, non-cirrhotic GT1b, LOQ=15 IU/mL) was 50% and the “Mean Max Reduction” value (GT1 HCV; [13]) was 4.4 log10 IU/mL. The “Mean Reduction After 24 hours” value (GT1 HCV; [13]) was 2.1 log10 IU/mL, the “HCV RNA < LOQ (15 IU/mL)” value (GT1 HCV; 600 mg of Compound 1-A, GT1, non-cirrhotic (n = 6), subjects/total) was 3/6 and the “mean maximum HCV RNA reduction” value (GT3 HCV; 600 mg QD for 7 days, non-cirrhotic GT3) was 4.6 log10 IU/mL and 4.5 log10 IU/mL. The “Mean Max Reduction” value (GT3 HCV; [14]) was 4.5 log10 IU/mL, the “Mean Reduction After 24 hours” value (GT3 HCV; [14]) was 2.4 log10 IU/mL and the “HCV RNA < LOQ (15 IU/mL)” value (GT3 HCV; 600 mg of Compound 1-A, GT3, non-cirrhotic (n = 6), subjects/total) was 1/6. The “mean HCV RNA reduction” value (GT3 HCV; after the first dose of 600 mg, non-cirrhotic GT3) was 2.4 log10 IU/mL, the “mean maximum HCV RNA reduction” value (GT1, GT2, or GT3 HCV; 600 mg QD for 7 days, CPA cirrhotic) was 4.4 log10 IU/mL and 4.6 log10 IU/mL and the “Mean Max Reduction” value (GT1, GT2, or GT3 HCV; GT1, Child-Pugh A (n = 3)) was 4.2 log10 IU/mL. For the same molecule, the “Mean Reduction After 24 hours” value (GT1, GT2, or GT3 HCV; GT1, Child-Pugh A (n = 3)) was 2.4 log10 IU/mL, the “HCV RNA < LOQ (15 IU/mL)” value (GT1, GT2, or GT3 HCV; GT1, Child-Pugh A (n = 3)) was 1/3 and the “Mean Max Reduction” value (GT1, GT2, or GT3 HCV; GT3, Child-Pugh A (n = 1)) was 4.8 log10 IU/mL. The “Mean Reduction After 24 hours” value (GT1, GT2, or GT3 HCV; GT3, Child-Pugh A (n = 1)) was 2.2 log10 IU/mL, the “HCV RNA < LOQ (15 IU/mL)” value (GT1, GT2, or GT3 HCV; GT3, Child-Pugh A (n = 1)) was 0/1 and the “HCV RNA reduction” value (GT1, GT2, or GT3 HCV; cirrhotic GT1, within the first 24 hours) was 2.4 log10. The “HCV RNA reduction” value (GT1, GT2, or GT3 HCV; cirrhotic GT3, within the first 24 hours) was 2.2 log10, the Appearance ([8]; FaSSIF) was “Turbid” and the Appearance ([8]; FeSSIF) was “Turbid”. For the same molecule, the Appearance ([8]; SGF) was “Turbid”, the Appearance ([8]; Water) was “Turbid” and the Descriptive term ([8]; FaSSIF) was “Slightly”. For the same molecule, the Descriptive term ([8]; FeSSIF) was “Slightly”, the Descriptive term ([8]; SGF) was “Soluble” and the Descriptive term ([8]; Water) was “Soluble”.
